Results: patent publication EP1044015B1, “FORMULATIONS FOR AMYLIN AGONIST PEPTIDES WITH INSULIN” (AMYLIN PHARMACEUTICALS, INC., priority 1998, dated 2008)

Test: Adsorption onto glass container
Format: physicochemical
Details: liquid form
Excerpt: However, with regard to amylin agonists or amylins which do have such a tendency, a surfactant should be used in their formulation which formulations should then be lyophilized. Surfactants frequently cause denaturation of protein, both of hydrophobic disruption and by salt bridge separation. Relatively low concentrations of surfactant exert a potent denaturing activity, because of the strong interactions between surfactant moieties and the reactive sites on proteins. However, judicious use of this interaction can stabilize proteins against interfacial or surface denaturation. Surfactants which could further stabilize the peptide may optionally be present in the range of about 0.001 to 0.3% (w/v) of the total formulation and include polysorbate 80 (i.e., polyoxyethylene(20) sorbitan monooleate), CHAPS° (i.e., 3-[(3-cholamidopropyl) dimethylammonio] 1-propanesulfonate), Brij° (e.g., Brij 35, which is (polyoxyethylene (23) lauryl ether), poloxamer, or another non-ionic surfactant.

## ^25,28,29Pro-h- amylin [Pramlintide]
  tendency to adsorb onto the glass: does not have a tendency to adsorb onto the glass
